From ChEMBL document CHEMBL4507274 (2021)

Assays:
[1] = target: Ribosomal protein S6 kinase alpha-2 (Homo sapiens) (UniProt Q15349); experiment: Rsk3 (h) Upstate kinase activity assay; conditions: Compound concentration 10.0 uM
[2] = target: Phosphatidylinositol 4,5-bisphosphate 3-kinase catalytic subunit alpha isoform (Homo sapiens) (UniProt P42336); conditions: Compound concentration 100.0 nM
PANC-1 = experiment: Pancreas PANC-1 cell line MDS Pharma Services Proliferation Assay; type: functional, cell-based, Homo sapiens
[3] = target: Hepatocyte growth factor receptor (Homo sapiens) (UniProt P08581); experiment: Met (h) Upstate kinase activity assay; conditions: Compound concentration 10.0 uM
[4] = system: Tyrosine-protein kinase ABL1 (Homo sapiens), P00519 [M351T]; conditions: Compound concentration 100.0 nM
[5] = target: Serine/threonine-protein kinase PAK 5 (Homo sapiens) (UniProt Q9P286); conditions: Compound concentration 100.0 nM
[6] = target: Casein kinase II subunit alpha' (Homo sapiens) (UniProt P19784); conditions: Compound concentration 100.0 nM
[7] = target: Dual specificity testis-specific protein kinase 1 (Homo sapiens) (UniProt Q15569); conditions: Compound concentration 100.0 nM
[8] = target: Tyrosine-protein kinase ABL1 (Homo sapiens) (UniProt P00519); conditions: Compound concentration 100.0 nM
HC-4 = experiment: Liver HC-4 cell line MDS Pharma Services Proliferation Assay; type: functional, cell-based, Homo sapiens
[9] = target: Mitogen-activated protein kinase 14 (Homo sapiens) (UniProt Q16539); experiment: SAPK2a (h) Upstate kinase activity assay; conditions: Compound concentration 10.0 uM
Rattus norvegicus = species: Rattus norvegicus; experiment: Rsk1 (r) Upstate kinase activity assay; conditions: Compound concentration 10.0 uM
[10] = target: Dual specificity protein kinase CLK2 (Homo sapiens) (UniProt P49760); conditions: Compound concentration 100.0 nM
[11] = target: Serine/threonine-protein kinase/endoribonuclease IRE1 (Homo sapiens) (UniProt O75460); conditions: Compound concentration 100.0 nM
[12] = target: Mitogen-activated protein kinase 8 (Homo sapiens) (UniProt P45983); experiment: JNK1alpha1 (h) Upstate kinase activity assay; conditions: Compound concentration 10.0 uM
[13] = target: Tyrosine-protein kinase FRK (Homo sapiens) (UniProt P42685); conditions: Compound concentration 100.0 nM
[14] = target: Serine/threonine-protein kinase TAO1 (Homo sapiens) (UniProt Q7L7X3); conditions: Compound concentration 100.0 nM
[15] = system: Hepatocyte growth factor receptor (Homo sapiens), P08581 [Y1235D]; conditions: Compound concentration 100.0 nM
[16] = target: Cyclin-dependent kinase 4 (Homo sapiens) (UniProt P11802); conditions: Compound concentration 100.0 nM
[17] = target: Ephrin type-A receptor 6 (Homo sapiens) (UniProt Q9UF33); conditions: Compound concentration 100.0 nM
PC-3 = experiment: Prostate PC-3 cell line MDS Pharma Services Proliferation Assay; type: functional, cell-based, Homo sapiens
[18] = target: Serine/threonine-protein kinase WNK3 (Homo sapiens) (UniProt Q9BYP7); conditions: Compound concentration 100.0 nM
[19] = system: Proto-oncogene tyrosine-protein kinase receptor Ret (Homo sapiens), P07949 [M918T]; conditions: Compound concentration 100.0 nM
[20] = target: Citron Rho-interacting kinase (Homo sapiens) (UniProt O14578); conditions: Compound concentration 100.0 nM
[21] = target: T1, Aurora kinase A (Homo sapiens) (UniProt O14965); conditions: Compound concentration 100.0 nM
T1 sequence (whole entry): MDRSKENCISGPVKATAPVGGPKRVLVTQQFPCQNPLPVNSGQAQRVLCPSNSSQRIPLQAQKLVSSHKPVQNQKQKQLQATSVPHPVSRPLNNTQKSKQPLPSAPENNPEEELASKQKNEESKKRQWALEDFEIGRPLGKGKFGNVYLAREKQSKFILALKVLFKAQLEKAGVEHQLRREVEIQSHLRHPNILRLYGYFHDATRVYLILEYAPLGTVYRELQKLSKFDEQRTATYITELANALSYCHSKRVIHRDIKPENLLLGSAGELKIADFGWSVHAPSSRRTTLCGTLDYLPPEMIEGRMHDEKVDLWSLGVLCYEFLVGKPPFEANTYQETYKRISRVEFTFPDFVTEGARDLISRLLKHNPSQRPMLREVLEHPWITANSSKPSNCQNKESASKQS

[22] = target: T2, Serine/threonine-protein kinase Nek2 (Homo sapiens) (UniProt P51955); conditions: Compound concentration 100.0 nM
T2 sequence (whole entry): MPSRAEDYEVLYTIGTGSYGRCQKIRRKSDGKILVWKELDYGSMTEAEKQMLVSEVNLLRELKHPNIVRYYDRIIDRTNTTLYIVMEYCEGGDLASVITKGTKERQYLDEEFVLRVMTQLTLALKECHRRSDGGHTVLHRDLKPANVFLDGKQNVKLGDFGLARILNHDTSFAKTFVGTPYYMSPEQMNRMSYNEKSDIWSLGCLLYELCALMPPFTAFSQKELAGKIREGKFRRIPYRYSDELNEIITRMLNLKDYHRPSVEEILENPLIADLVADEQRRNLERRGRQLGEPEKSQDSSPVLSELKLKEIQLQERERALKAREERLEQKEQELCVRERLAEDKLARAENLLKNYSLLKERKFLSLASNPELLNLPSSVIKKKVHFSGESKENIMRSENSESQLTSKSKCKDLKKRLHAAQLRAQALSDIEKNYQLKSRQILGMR

[23] = target: Dual specificity protein kinase TTK (Homo sapiens) (UniProt P33981); conditions: Compound concentration 100.0 nM
[24] = target: Vascular endothelial growth factor receptor 2 (Homo sapiens) (UniProt P35968); conditions: Compound concentration 100.0 nM
[25] = target: Receptor-interacting serine/threonine-protein kinase 4 (Homo sapiens) (UniProt P57078); conditions: Compound concentration 100.0 nM
[26] = system: Epidermal growth factor receptor (Homo sapiens), P00533 [T790M]; conditions: Compound concentration 100.0 nM

Sequence of Dual specificity protein kinase TTK (Homo sapiens) (P33981 whole entry): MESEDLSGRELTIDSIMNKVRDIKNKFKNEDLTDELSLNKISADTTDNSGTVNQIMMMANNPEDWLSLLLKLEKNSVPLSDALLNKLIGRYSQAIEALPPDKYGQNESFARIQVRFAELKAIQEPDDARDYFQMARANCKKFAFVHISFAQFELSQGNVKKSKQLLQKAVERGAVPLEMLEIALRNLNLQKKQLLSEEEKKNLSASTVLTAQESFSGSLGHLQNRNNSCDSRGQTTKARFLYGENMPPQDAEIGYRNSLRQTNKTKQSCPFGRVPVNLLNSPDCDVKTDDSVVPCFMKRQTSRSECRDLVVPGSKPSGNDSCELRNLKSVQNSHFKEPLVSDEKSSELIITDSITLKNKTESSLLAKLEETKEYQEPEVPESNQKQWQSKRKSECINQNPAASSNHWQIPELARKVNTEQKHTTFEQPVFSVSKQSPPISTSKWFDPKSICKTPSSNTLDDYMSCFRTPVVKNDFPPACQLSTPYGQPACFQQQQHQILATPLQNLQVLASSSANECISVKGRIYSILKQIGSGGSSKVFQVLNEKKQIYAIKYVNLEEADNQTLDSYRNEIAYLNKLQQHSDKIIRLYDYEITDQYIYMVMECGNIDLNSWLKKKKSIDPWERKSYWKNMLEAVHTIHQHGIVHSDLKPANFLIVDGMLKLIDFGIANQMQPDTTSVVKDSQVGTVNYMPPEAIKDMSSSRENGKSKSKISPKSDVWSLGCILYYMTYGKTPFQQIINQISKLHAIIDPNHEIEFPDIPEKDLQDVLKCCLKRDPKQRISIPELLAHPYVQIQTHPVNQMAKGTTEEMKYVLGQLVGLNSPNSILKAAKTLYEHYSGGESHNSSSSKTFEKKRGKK
Sequence of Serine/threonine-protein kinase/endoribonuclease IRE1 (Homo sapiens) (O75460 19-977 limits assumed): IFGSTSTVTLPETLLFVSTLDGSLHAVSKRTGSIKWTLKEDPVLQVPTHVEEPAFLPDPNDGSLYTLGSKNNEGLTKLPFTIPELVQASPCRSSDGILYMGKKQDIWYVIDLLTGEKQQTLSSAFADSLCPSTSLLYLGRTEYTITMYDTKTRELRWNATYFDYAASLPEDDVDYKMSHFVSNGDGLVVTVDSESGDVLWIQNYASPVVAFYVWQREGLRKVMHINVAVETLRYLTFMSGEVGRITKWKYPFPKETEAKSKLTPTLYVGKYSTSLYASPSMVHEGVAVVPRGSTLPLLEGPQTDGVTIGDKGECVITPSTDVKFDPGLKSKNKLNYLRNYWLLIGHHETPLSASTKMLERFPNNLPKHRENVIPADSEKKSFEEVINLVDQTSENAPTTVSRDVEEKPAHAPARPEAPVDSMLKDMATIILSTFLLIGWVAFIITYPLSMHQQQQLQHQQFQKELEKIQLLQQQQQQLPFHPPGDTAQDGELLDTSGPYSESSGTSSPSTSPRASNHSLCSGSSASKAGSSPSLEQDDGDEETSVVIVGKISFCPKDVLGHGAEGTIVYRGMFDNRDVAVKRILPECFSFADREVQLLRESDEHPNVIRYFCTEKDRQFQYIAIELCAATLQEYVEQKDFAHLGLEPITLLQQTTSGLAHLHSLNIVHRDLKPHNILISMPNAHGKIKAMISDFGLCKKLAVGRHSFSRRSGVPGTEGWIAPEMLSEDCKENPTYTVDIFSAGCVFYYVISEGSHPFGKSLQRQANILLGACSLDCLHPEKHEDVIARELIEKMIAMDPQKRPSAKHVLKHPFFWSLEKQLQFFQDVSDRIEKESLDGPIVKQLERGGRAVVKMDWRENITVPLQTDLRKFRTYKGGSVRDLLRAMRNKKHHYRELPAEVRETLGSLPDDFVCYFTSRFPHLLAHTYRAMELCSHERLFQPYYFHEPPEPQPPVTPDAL
Sequence of Cyclin-dependent kinase 4 (Homo sapiens) (P11802 whole entry): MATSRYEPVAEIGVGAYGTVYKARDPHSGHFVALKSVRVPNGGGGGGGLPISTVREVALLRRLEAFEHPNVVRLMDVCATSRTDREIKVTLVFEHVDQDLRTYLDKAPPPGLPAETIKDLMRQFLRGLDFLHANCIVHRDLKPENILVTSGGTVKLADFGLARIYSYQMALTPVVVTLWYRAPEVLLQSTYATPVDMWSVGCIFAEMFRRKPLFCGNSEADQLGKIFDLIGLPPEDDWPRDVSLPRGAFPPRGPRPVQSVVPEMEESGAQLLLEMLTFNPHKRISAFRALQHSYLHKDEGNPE
Sequence of Proto-oncogene tyrosine-protein kinase receptor Ret (Homo sapiens), P07949 [M918T] (P07949 whole entry M918T): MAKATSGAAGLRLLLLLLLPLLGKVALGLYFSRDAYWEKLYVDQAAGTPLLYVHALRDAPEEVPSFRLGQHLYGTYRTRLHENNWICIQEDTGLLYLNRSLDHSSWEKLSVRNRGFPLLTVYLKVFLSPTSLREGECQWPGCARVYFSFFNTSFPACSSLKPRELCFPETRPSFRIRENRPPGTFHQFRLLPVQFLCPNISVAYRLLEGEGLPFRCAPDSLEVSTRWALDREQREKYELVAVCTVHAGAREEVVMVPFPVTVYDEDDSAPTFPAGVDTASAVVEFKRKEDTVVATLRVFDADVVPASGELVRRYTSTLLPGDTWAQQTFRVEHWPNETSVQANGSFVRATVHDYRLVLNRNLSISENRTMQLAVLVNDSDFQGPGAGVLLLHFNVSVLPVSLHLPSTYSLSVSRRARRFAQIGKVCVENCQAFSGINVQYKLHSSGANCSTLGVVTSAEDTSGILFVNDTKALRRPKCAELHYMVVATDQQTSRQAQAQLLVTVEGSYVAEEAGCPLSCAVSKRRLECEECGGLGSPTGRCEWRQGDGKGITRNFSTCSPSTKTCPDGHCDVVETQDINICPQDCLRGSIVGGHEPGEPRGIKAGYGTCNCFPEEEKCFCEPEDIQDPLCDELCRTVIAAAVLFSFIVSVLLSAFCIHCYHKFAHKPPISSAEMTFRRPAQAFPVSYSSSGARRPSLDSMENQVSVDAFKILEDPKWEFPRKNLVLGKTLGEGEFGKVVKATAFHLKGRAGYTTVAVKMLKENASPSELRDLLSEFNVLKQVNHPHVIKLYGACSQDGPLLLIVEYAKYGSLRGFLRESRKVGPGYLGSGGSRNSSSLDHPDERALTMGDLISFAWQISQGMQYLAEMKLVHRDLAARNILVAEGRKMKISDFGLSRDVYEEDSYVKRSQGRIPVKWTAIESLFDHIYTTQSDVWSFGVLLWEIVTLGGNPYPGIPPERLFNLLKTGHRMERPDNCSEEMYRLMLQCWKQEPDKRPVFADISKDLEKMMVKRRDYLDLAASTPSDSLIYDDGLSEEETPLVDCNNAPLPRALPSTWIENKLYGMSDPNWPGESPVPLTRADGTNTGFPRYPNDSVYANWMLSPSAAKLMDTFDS
Sequence of Serine/threonine-protein kinase WNK3 (Homo sapiens) (Q9BYP7 whole entry): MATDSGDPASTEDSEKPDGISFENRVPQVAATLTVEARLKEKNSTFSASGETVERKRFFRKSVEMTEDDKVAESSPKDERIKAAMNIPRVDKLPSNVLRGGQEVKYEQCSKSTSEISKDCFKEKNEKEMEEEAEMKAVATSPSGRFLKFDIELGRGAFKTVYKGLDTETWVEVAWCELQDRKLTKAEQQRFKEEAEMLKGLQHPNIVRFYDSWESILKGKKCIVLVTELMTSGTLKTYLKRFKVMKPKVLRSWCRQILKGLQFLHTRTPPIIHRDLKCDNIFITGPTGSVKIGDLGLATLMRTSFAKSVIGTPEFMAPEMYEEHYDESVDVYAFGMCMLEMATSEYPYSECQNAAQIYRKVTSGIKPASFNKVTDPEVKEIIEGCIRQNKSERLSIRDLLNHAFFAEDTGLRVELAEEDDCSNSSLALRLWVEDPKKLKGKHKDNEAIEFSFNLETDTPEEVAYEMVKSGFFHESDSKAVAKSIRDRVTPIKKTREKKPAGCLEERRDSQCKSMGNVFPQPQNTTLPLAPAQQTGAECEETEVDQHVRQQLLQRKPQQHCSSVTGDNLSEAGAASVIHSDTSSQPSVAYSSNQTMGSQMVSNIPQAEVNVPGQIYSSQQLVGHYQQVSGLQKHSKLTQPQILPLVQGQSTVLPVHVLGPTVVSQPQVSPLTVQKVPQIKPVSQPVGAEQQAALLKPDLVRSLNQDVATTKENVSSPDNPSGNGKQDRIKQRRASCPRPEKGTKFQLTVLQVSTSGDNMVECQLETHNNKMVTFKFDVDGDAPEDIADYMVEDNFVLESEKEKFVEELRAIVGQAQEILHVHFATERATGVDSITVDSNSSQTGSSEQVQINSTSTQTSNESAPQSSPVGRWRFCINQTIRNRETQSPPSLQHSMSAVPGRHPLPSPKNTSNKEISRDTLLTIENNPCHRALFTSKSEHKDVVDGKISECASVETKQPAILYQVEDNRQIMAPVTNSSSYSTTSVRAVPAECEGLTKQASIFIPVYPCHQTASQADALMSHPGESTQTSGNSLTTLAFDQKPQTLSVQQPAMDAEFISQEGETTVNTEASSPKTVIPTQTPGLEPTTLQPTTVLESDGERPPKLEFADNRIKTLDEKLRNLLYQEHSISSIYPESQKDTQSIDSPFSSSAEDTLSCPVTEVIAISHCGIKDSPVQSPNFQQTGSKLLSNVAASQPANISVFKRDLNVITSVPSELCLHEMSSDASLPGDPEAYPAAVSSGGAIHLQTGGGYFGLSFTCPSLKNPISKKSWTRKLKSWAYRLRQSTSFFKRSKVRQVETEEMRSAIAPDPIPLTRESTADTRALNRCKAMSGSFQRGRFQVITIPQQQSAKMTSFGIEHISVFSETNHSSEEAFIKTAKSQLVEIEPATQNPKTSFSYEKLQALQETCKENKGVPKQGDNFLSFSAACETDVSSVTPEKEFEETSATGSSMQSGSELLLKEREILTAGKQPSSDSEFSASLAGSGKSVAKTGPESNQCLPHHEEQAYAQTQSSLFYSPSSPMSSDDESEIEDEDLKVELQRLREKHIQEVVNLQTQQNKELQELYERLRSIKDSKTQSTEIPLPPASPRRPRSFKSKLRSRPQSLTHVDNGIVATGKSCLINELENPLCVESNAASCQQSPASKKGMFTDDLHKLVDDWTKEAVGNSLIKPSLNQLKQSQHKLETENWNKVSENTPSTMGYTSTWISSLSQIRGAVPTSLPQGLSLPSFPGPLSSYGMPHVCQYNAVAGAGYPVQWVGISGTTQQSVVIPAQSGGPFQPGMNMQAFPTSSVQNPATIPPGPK

Work on `Cc1c[nH]c2nccc(Oc3c(F)cc(Nc4cc(Cl)nc(N)n4)cc3F)c12` [BAY-549] yielded an inhibition [1] of 48%, a residual activity [2] of 83% and a TGI (PANC-1; Homo sapiens, PANC-1) of 45 µM. The CC50 (PANC-1; Homo sapiens, PANC-1, read-out: LC50 (the source's name)) was over 100 µM, the “Mean % growth (n = 2) for 10.0 µM probe concentration” value (PANC-1; ± SEM 1 % growth) was 55% and the “Mean % growth (n = 2) for 1.0 µM probe concentration” value (PANC-1; ± SEM 2 % growth) was 87%. The “Mean % growth (n = 2) for 0.1 µM probe concentration” value (PANC-1; ± SEM 3 % growth) was 86%, the “Mean % growth (n = 2) for 0.01 µM probe concentration” value (PANC-1; ± SEM 8 % growth) was 98% and the “Mean % growth (n = 2) for 100.0 µM probe concentration” value (PANC-1; ± SEM 9 % growth) was -31%. The inhibition [3] was 82%, the residual activity [4] was 83% and the residual activity [5] was 92%. The residual activity [6] was 86%, the residual activity [7] was 100% and the residual activity [8] was 97%. It also gave an IC50 (HC-4; Homo sapiens, HC-4) of 2.1 µM, a TGI (HC-4; Homo sapiens, HC-4) of 13 µM and a CC50 (HC-4; Homo sapiens, HC-4, read-out: LC50 (the source's name)) of 82 µM. The “Mean % growth (n = 2) for 0.1 µM probe concentration” value (HC-4; ± SEM 1 % growth) was 94%, the “Mean % growth (n = 2) for 0.01 µM probe concentration” value (HC-4; ± SEM 5 % growth) was 102% and the “Mean % growth (n = 2) for 1.0 µM probe concentration” value (HC-4; ± SEM 5 % growth) was 59%. The “Mean % growth (n = 2) for 10.0 µM probe concentration” value (HC-4; ± SEM 8 % growth) was 12%, the “Mean % growth (n = 2) for 100.0 µM probe concentration” value (HC-4; ± SEM 8 % growth) was -56% and the inhibition [9] was 21%. The inhibition (Rattus norvegicus) was 79%, the residual activity [10] was 86% and the residual activity [11] was 68%. It also gave an inhibition [12] of 22%, a residual activity [13] of 100% and a residual activity [14] of 84%. It also gave a residual activity [15] of 88%, a residual activity [16] of 100% and a residual activity [17] of 100%. The IC50 (PC-3; Homo sapiens, PC-3) was 9.4 µM, the TGI (PC-3; Homo sapiens, PC-3) was over 100 µM and the CC50 (PC-3; Homo sapiens, PC-3, read-out: LC50 (the source's name)) was over 100 µM. For the same compound, the “Mean % growth (n = 2) for 10.0 µM probe concentration” value (PC-3; ± SEM 1 % growth) was 48%, the “Mean % growth (n = 2) for 0.01 µM probe concentration” value (PC-3; ± SEM 2 % growth) was 97% and the “Mean % growth (n = 2) for 1.0 µM probe concentration” value (PC-3; ± SEM 3 % growth) was 58%. For the same compound, the “Mean % growth (n = 2) for 100.0 µM probe concentration” value (PC-3; ± SEM 3 % growth) was 29%, the “Mean % growth (n = 2) for 0.1 µM probe concentration” value (PC-3; ± SEM 5 % growth) was 102% and the residual activity [18] was 90%. The residual activity [19] was 100%, the residual activity [20] was 100% and the residual activity [21] was 94%. For the same compound, the residual activity [22] was 97%, the residual activity [23] was 96% and the residual activity [24] was 81%. It also gave a residual activity [25] of 84%.
`Cn1cc(Cl)c2c(Oc3c(F)cc(Nc4cc(Cl)nc(N)n4)cc3F)ccnc21` [BAY-4900] was tested, and the residual activity [2] was 79%, the residual activity [4] was 90% and the residual activity [5] was 90%. It also gave a residual activity [6] of 89%, a residual activity [7] of 100% and a residual activity [8] of 97%. It also gave a residual activity [10] of 87%, a residual activity [11] of 76% and a residual activity [13] of 81%. The residual activity [14] was 97%, the residual activity [15] was 91% and the residual activity [16] was 100%. It also gave a residual activity [26] of 88%, a residual activity [17] of 100% and a residual activity [18] of 95%. For the same compound, the residual activity [19] was 92%, the residual activity [20] was 100% and the residual activity [21] was 100%. It also gave a residual activity [22] of 100%, a residual activity [23] of 100% and a residual activity [24] of 93%. For the same compound, the residual activity [25] was 100%.
